The values that follow are results of earlier work, collected in paper PMC3082041 (Cancer Chemotherapy and Pharmacology, 2010).

This data set relates to patients. To be noted: treated with Imatinib; cited from earlier work.

Regarding `Cc1ccc(NC(=O)c2ccc(CN3CCN(C)CC3)cc2)cc1Nc1nccc(-c2cccnc2)n1` [Imatinib], the “patients with grade 3/4 edema” value was 7%.
